The test system of one assay is pERK and pAKT. Put plainly: Western blot of downstream pERK and pAKT after FGF2 stimulation. The note with it: 2 μm brivanib, 40 ng/ml FGF2, HCC cell line. The format is cell-based.
Another assay deals with GEO colon cancer cells. Put plainly: FGF2-induced proliferation of GEO colon cancer cells (modified MTS assay). The format is cell-based. On the procedure: Cell Culture-GEO colon cancer cell line was routinely maintained in RPMI 1640 (Cellgro, Virginia) with 1% fetal bovine serum (Cellgro, Virginia) at 37° C. in 5% carbon dioxide/95% air in the presence of 100 units/ml penicillin, 100 μg/ml streptomycin (Cellgro, Virginia). Cell proliferation was determined by a modified MTS assay with […] 96® Aqueous One Solution Reagent (Promega, Madison, Wis.). […] After 180 minutes incubation, the optical densities (OD) of these samples were directly measured using SPECTRAMAX® plus (Molecular Device, California) and reference wavelength of 490 nm. […] Cell proliferation was determined by a modified MTS assay with […] […] After 180 minutes incubation, the optical densities (OD) of these samples were directly measured using SPECTRAMAX® plus (Molecular Device, California) and reference wavelength of 490 nm. […] […]
(Formazan colour is commonly taken as a measure of viable cells.)

For another assay, the system named is FGF pathway. Nature of the assay: Gene set enrichment analysis of FGF pathway expression after FGF2 stimulation. The format is cell-based. The note with it: 1 μm drug after FGF2 stimulation. On the procedure: The expression profiles of individual genes within each pathway were analyzed, and the log of the change in expression profile for each condition was measured. Overall, 67 pathways were analyzed. Each gene analyzed for each pathway have not been provided. But, 46 genes from the FGF pathway, 62 genes from the VEGF pathway were analyzed, and a larger generic number of genes consisting of 92 genes for the FGF pathway were analyzed using the AMBION® gene set.

The subject of the next assay is VEGF gene expression. Nature of the assay: VEGF gene expression, AFFYMETRIX human arrays.
Assay [1] deals with A2780 ovarian cancer cells. Nature of the assay: FGF2-induced proliferation of A2780 ovarian cancer cells (modified MTS assay). The format is cell-based. Here is the method: (§1) Cell proliferation was determined by a modified MTS assay with […] 96® Aqueous One Solution Reagent (Promega, Madison, Wis.). A2780 ovarian cancer cells, MIAPAC-2 pancreatic cancer cells, or GEO colon cancer cells were seeded on 96-well flat-bottomed tissue culture plates (Becton Dickinson, San Jose, Calif.) at a concentration of 3×10^3 cells/well in RPMI 1640 with 1% fetal bovine serum at 37° C. in 5% carbon dioxide/95% air in the presence of 100 units/ml penicillin, 100 μg/ml streptomycin and allowed to adhere to the plate overnight. Then the cells were incubated in the presence of each concentration of 0 (control), 0.3, 0.6, 1.25, 2.5, 5, 10 ng/ml of FGF2 or VEGF for another 72 hours at 37° C. in a humidified atmosphere of 5% CO2 in air. After treatment, 20 μl of […] 96® Aqueous One Solution Reagent was dropped into each well of plates. After 180 minutes incubation, the optical densities (OD) of these samples were directly measured using SPECTRAMAX® plus (Molecular Device, California) and reference wavelength of 490 nm. The OD of control samples was regarded as 100. Each condition was performed with 4 wells and experiment was repeated twice.

In assay [2] the test system is MIAPAC-2 pancreatic cancer cells. Put plainly: FGF2-induced proliferation of MIAPAC-2 pancreatic cancer cells (modified MTS assay). The assay is classed as cell-based. Here is the method:
as §1

In the next assay the test system is GEO colon cancer model. Nature of the assay: Tumor growth inhibition in GEO colon cancer model. The format is in vivo. To be noted: compared to bevacizumab.
In a further assay the test system is sVEGFR2. Put plainly: Plasma sVEGFR2 change from baseline in patients. The format is in vivo, human.

Data on 1 substance can be found in patent US20100234381A1, “BIOMARKERS AND METHODS FOR DETERMINING SENSITIVITY TO VASCULAR ENDOTHELIAL GROWTH FACTOR RECEPTOR-2 MODULATORS” (Bristol-Myers Squibb Company, priority 2007, published 2010).

“Also recorded” adds a separate entry of the source. A value given as a limit tells only on which side of the number the result lay.

Experimental for pERK and pAKT: Anti-FGFR1, Anti-VEGFR2, Anti-ERK, Anti-AKT, and Anti-alpha tubulin antibodies were also utilized. Blots were incubated with indicated primary antibodies and 1:7500 horseradish peroxidase-conjugated secondary antibodies. All primary antibodies were used at a final concentration of 1 μg/ml. The blots were then visualized with a chemiluminescent detection system.

As to “[(1R),2S]-2-Aminopropionic acid 2-[4-(4-fluoro-2-methyl-1H-indol-5-yloxy)-5-methylpyrrolo[2,1-f][1,2,4]triazin-6-yloxy]-1-methylethyl ester [brivanib]”, the “downstream pathway pERK and pAKT” value in the assay on pERK and pAKT is “affecting downstream pathway genes such as pERK and pAKT”. The “GEO tumor cell growth over time, stimulated with FGF2” value in the assay on GEO colon cancer cells (2.5 μM brivanib, day 1 to 8 compared to day 0 control) is recorded as “inhibited GEO tumor cell growth stimulated with FGF2”. Also, in the assay on GEO colon cancer cells (FGF2 2.5 ng/ml, 72 hours), the “inhibition of FGF2-induced cellular proliferation in GEO cells” value was “potently inhibited; also recorded: inhibited cancer cell growth directly; also recorded: inhibits colon cancer cell growth directly”. The “FGF2-induced FGF pathway up-regulation (expression)” value with FGF pathway is reported as “inhibited only by brivanib; also recorded: abrograted only in the presence of only brivanib”. In addition, the “modulation of VEGF gene expression levels” value in the assay on VEGF gene expression is recorded as “modulated VEGF gene expression levels”. The “effect on FGF2-induced cellular proliferation” value is “potently inhibited; also recorded: inhibits ovarian cancer and pancreatic cancer cell line growth directly” in assay [1] (A2780 ovarian cancer cells); “potently inhibited; also recorded: inhibits ovarian cancer and pancreatic cancer cell line growth directly” in assay [2] (MIAPAC-2 pancreatic cancer cells). In addition, the “inhibition of FGF2-induced cell growth” value in assay [1] (ovarian cancer cell line A2870) and in assay [2] (pancreatic cancer cell line MIAPAC-2) was over 50% in each case. The IC50 (in general, the midpoint of a concentration-inhibition curve) in assay [1] (ovarian cancer cell line A2870, read-out: IC50, FGF2-induced cell growth) is under 1000 nM; in assay [2] (pancreatic cancer cell line MIAPAC-2, read-out: IC50, FGF2-induced cell growth), under 500 nM. In addition, the “ability to inhibit tumor growth” value in the assay with GEO colon cancer model is reported as “increased affect on the ability to inhibit tumor growth when compared to bevacizumab”. In addition, the “sVEGFR2 change from baseline (%) (Day 26) (n = 39)” value is given as −23% with sVEGFR2 (FGF2+ patients (n = 24)) and −15% in the assay with sVEGFR2 (FGF2− patients (n = 19)).
